In PubChem BioAssay (NCI):
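GI50: concentration for 50% inhibition of growth. TGI denotes the concentration required for complete inhibition of growth.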

Columns and labels:
Assay in all cases: NCI-60 cell line screen, 384-well format
[1] = test system: SR leukemia
[2] = test system: NCI-H460 NSCLC
[3] = test system: IGROV1 ovarian
[4] = test system: OVCAR-5 ovarian
[5] = test system: RXF 393 renal
[6] = test system: NCI-H322M lung
[7] = test system: M14 melanoma
[8] = test system: HOP-92 NSCLC
[9] = test system: NCI/ADR-RES ovarian
[10] = test system: HS 578T breast
[11] = test system: MCF7 breast
[12] = test system: LOX IMVI melanoma
[13] = test system: ACHN renal
[14] = test system: SNB-75 CNS
[15] = test system: A498 renal
[16] = test system: PC-3 prostate
[17] = test system: OVCAR-3 ovarian
[18] = test system: SK-MEL-5 melanoma
[19] = test system: EKVX NSCLC
[20] = test system: HCT-15 colon
[21] = test system: UACC-257 melanoma
[22] = test system: HT29 colon
[23] = test system: HCT-116 colon
[24] = test system: HCC-2998 colon
[25] = test system: HOP-62 NSCLC
[26] = test system: NCI-H23 lung
[27] = test system: DU-145 prostate
[28] = test system: COLO 205 colon
[29] = test system: MDA-MB-231 breast
[30] = test system: SF-295 CNS
[31] = test system: BT-549 breast
[32] = test system: SF-539 CNS
[33] = test system: U251 glioblastoma
[34] = test system: MDA-MB-435 melanoma
[35] = test system: OVCAR-4 ovarian
[36] = test system: CAKI-1 renal
[37] = test system: SN12C renal
[38] = test system: SF-268 CNS
[39] = test system: A549 NSCLC
[40] = test system: MOLT-4 leukemia
[41] = test system: MALME-3M melanoma
[42] = test system: NCI-H522 lung
[43] = test system: KM12 colon
[44] = test system: SK-MEL-28 melanoma
[45] = test system: UACC-62 melanoma
[46] = test system: SNB-19 CNS
[47] = test system: NCI-H226 lung
[48] = test system: T-47D breast
[49] = test system: RPMI-8226 leukemia
[50] = test system: HL-60(TB) leukemia
[51] = test system: MDA-MB-468 breast
[52] = test system: OVCAR-8 ovarian
[53] = test system: TK-10 renal

With `Cn1cc(-c2[nH]c3cc(NC(=O)[C@H](N)C4CCCCC4)cc4c3c2C=NNC4=O)cn1` the TGI [1] was 27.2 nM, the GI50 [2] was 3.09 µM and the TGI [2] was 11.1 µM. The GI50 [3] was 275 nM, the TGI [3] was 960 nM and the GI50 [4] was 326 nM. The TGI [4] was 953 nM, the GI50 [5] was 211 nM and the TGI [5] was 689 nM. The GI50 [6] was 198 nM, the TGI [6] was 894 nM and the GI50 [7] was 195 nM. The TGI [7] was 402 nM, the GI50 [8] was 111 nM and the TGI [8] was 5.43 µM. The GI50 [9] was 4.97 µM, the TGI [9] was 23.1 µM and the GI50 [10] was 191 nM. For the same compound, the TGI [10] was 847 nM, the GI50 [11] was 176 nM and the TGI [11] was 12.7 µM. For the same compound, the GI50 [12] was 312 nM, the TGI [12] was 1060 nM and the GI50 [13] was 314 nM. For the same compound, the TGI [13] was 954 nM, the GI50 [14] was 506 nM and the TGI [14] was 2990 nM. It also gave a GI50 [15] of 91.6 nM, a TGI [15] of 277 nM and a GI50 [16] of 768 nM. The TGI [16] was 13.4 µM, the GI50 [17] was 49.6 nM and the TGI [17] was 209 nM. The GI50 [18] was 175 nM, the TGI [18] was 407 nM and the GI50 [19] was 538 nM. The TGI [19] was 11.4 µM, the GI50 [20] was 2720 nM and the TGI [20] was 9.18 µM. For the same compound, the GI50 [21] was 1420 nM, the TGI [21] was 6.26 µM and the GI50 [22] was 1030 nM. For the same compound, the TGI [22] was 2580 nM, the GI50 [23] was 427 nM and the TGI [23] was 6.28 µM. It also gave a GI50 [24] of 42 nM, a TGI [24] of 227 nM and a GI50 [25] of 203 nM. The TGI [25] was 483 nM, the GI50 [26] was 276 nM and the TGI [26] was 1740 nM. For the same compound, the GI50 [27] was 359 nM, the TGI [27] was 12.4 µM and the GI50 [28] was 489 nM. The TGI [28] was 1710 nM, the GI50 [29] was 599 nM and the TGI [29] was 9.62 µM. The GI50 [30] was 339 nM, the TGI [30] was 2300 nM and the GI50 [31] was 152 nM. The TGI [31] was 362 nM, the GI50 [32] was 38.1 nM and the TGI [32] was 156 nM. For the same compound, the GI50 [33] was 320 nM, the TGI [33] was 1520 nM and the GI50 [34] was 166 nM. The TGI [34] was 340 nM, the GI50 [35] was 29.6 nM and the TGI [35] was 93.9 nM. For the same compound, the GI50 [36] was 531 nM, the TGI [36] was 12.4 µM and the GI50 [37] was 200 nM. It also gave a TGI [37] of 856 nM, a GI50 [38] of 169 nM and a TGI [38] of 10.9 µM. The GI50 [39] was 4.66 µM, the TGI [39] was 17.3 µM and the GI50 [40] was 201 nM. For the same compound, the TGI [40] was 347 nM, the GI50 [41] was 781 nM and the TGI [41] was 17.4 µM. The GI50 [42] was 219 nM, the TGI [42] was 627 nM and the GI50 [43] was 466 nM. The TGI [43] was 8.76 µM, the GI50 [44] was 761 nM and the TGI [44] was 16.4 µM. The GI50 [45] was 486 nM, the TGI [45] was 18.2 µM and the GI50 [46] was 299 nM. For the same compound, the TGI [46] was 1090 nM, the GI50 [47] was 636 nM and the TGI [47] was 3.95 µM. For the same compound, the GI50 [48] was 12.2 µM, the TGI [48] was 24.7 µM and the GI50 [49] was 1920 nM. The TGI [49] was 3.37 µM, the GI50 [50] was 204 nM and the TGI [50] was 353 nM. It also gave a GI50 [51] of 186 nM, a TGI [51] of 426 nM and a GI50 [52] of 153 nM. For the same compound, the TGI [52] was 359 nM, the GI50 [53] was 222 nM and the TGI [53] was 515 nM.
